Data set [1] concerns the target T1, Peroxisome proliferator-activated receptor gamma (Homo sapiens, UniProt P37231).
T1 sequence (P37231 whole entry): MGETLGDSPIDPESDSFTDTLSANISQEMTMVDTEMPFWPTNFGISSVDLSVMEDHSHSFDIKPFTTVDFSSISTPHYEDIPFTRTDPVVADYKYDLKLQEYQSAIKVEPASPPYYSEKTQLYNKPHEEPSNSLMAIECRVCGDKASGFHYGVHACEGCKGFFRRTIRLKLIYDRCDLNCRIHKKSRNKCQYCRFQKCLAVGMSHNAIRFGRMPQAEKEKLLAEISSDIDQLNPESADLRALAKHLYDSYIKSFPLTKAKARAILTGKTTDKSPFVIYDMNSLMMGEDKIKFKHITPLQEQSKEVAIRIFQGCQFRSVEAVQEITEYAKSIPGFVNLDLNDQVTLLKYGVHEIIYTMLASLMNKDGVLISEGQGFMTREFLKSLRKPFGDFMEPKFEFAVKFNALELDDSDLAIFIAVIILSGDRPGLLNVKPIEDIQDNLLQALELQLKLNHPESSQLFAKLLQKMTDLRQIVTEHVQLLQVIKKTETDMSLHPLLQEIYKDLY
Nature of the data set: Agonist activity at Gal4-fused PPAR-gamma (unknown origin) transfected in mouse C2C12 cells assessed as decrease in luciferase activity at 0.2 to 20 uM measured after 24 hrs by Dual-Glo Luciferase assay. The data set is classed as toxicity, cell-based. As to conditions: c2c12, 24 h, dose 0.2-20 µM.

Data set [2] can be described thus: Inhibition of mitochondrial pyruvate carrier in C57BL/6J mouse cardiac mitochondria assessed as inhibition of pyruvate/malate-induced mitochondrial respiration by steady-state ADP coupled assay. Set-up: species or system Heart.
Data set [3] deals with LX-2. In words: Inhibition of hepatic stellate cell activation in human LX-2 cells assessed as inhibition of TGF-beta-stimulated ACTA2 gene expression at 10 uM quantitative real-time PCR analysis. In kind it is functional, cell-based.
A short description of data set [4]: Half life in human liver microsomes at 1 uM in presence of NADPH by LC-MS/MS analysis. The data set is classed as ADME, Microsome.
The nature of data set [5]: Intrinsic clearance in human liver microsomes at 1 uM in presence of NADPH by LC-MS/MS analysis. In kind it is ADME, Microsome.
The nature of data set [6]: Kinetic solubility of the compound in PBS at pH 7.4 measured after 24 hrs by LC-MS/MS analysis. The data set is classed as physicochemical. The settings on record: for Kinetic_solubility: buffer, pH 7.4, 24 h; for solubility kinetic at 24 h: PBS, pH 7.4, read-out: Kinetic_solubility.
Data set [7] deals with LX-2. Nature of the data set: Inhibition of hepatic stellate cell activation in human LX-2 cells assessed as inhibition of TGF-beta-stimulated […] gene expression at 10 uM quantitative real-time PCR analysis. In kind it is functional, cell-based.
For data set [8], the system named is LX-2. Nature of the data set: Inhibition of hepatic stellate cell activation in human LX-2 cells assessed as inhibition of TGF-beta-stimulated FN1 gene expression at 10 uM quantitative real-time PCR analysis. In kind it is functional, cell-based. For orientation: In qPCR the cycle at which signal appears reflects the starting amount.
Data set [9] deals with T1, Peroxisome proliferator-activated receptor gamma. In words: Agonist activity at Gal4-fused PPAR-gamma (unknown origin) transfected in mouse C2C12 cells assessed as decrease in luciferase activity at 10 uM measured after 24 hrs by Dual-Glo Luciferase assay. The settings on record: c2c12, 24 h. The data set is classed as toxicity, cell-based.

The structures appear in SMILES notation. Calls of active or inactive are those of the source. The calls are words filed in the database; no cut-off is given here.

A word on the EC50: it is the concentration that produces a half-maximal response. For `N#C/C(=C\c1c[nH]nc1-c1cc(Br)cc(Br)c1)C(=O)O`, the Activity entry in [1] is “Not_active”. For the same compound, the EC50 in data set [2] worked out at 70 nM. The inhibition result in the data set with LX-2 [3] is “Active”. Also, the t1/2 in [4] was 0.257 h. Besides, in [5], the Intrinsic clearance worked out at 45 µL/min/mg. The Kinetic_solubility in data set [6] stood at 22 µM.

As to `N#C/C(=C\c1c[nH]nc1-c1cccnc1)C(=O)O`, in data set [2], the EC50 came to 7770 nM.

As for `N#C/C(=C\c1c[nH]nc1-c1ccc(Cl)cc1Cl)C(=O)O`, the EC50 in data set [2] was found to be 1080 nM.

Take `CC(C)(C)c1ccc(-c2n[nH]cc2/C=C(\C#N)C(=O)O)cc1`: in [2], the EC50 was 447 nM.

Take `N#C/C(=C\c1c[nH]nc1-c1ccc(F)cc1)C(=O)O`: the EC50 in data set [2] was found to be 651 nM.

For `CCOC(=O)/C(C#N)=C/c1c[nH]nc1-c1ccc(Cl)c(Cl)c1`, in data set [2], the EC50 worked out at 3890 nM. For the same compound, the t1/2 in data set [4] was determined as 0.03 h. Also, the Intrinsic clearance in data set [5] worked out at 377 µL/min/mg. The compound further had a Kinetic_solubility in [6] of 4.8 µM.

Turning to `COc1cccc(-c2n[nH]cc2/C=C(\C#N)C(=O)O)c1`, in data set [2], the half-maximal effective concentration (EC50) turned out to be 927 nM.

For `CS(=O)(=O)c1ccc(-c2n[nH]cc2/C=C(\C#N)C(=O)O)cc1`, the EC50 in data set [2] amounted to 18300 nM.

Take `Cc1cccc(-c2n[nH]cc2/C=C(\C#N)C(=O)O)c1`: the EC50 in [2] came out at 550 nM.

`CCn1cc(/C=C(\C#N)C(=O)O)c(-c2ccc(Cl)c(Cl)c2)n1`: the EC50 in data set [2] was 390 nM.

Regarding `N#C/C(=C\c1c[nH]nc1-c1cccs1)C(=O)O`, the EC50 in [2] stood at 374 nM.

Consider `N#C/C(=C\c1c[nH]nc1-c1ccc(Br)cc1)C(=O)O`, for which the EC50 in data set [2] was 344 nM.

Turning to `CCc1ccc(-c2n[nH]cc2/C=C(\C#N)C(=O)O)cc1`, the EC50 in [2] came out at 614 nM.

`N#C/C(=C\c1cn(-c2ccccc2)nc1-c1cccc2ccccc12)C(=O)O`: the EC50 in data set [2] was 707 nM.

In the case of `N#C/C(=C\c1c[nH]nc1-c1ccc([N+](=O)[O-])cc1)C(=O)O`, in data set [2], the EC50 is 4120 nM.

As for `N#C/C(=C\c1c[nH]nc1-c1cccc(F)c1)C(=O)O`, in [2], the EC50 worked out at 785 nM.

Regarding `N#C/C(=C\c1cn(-c2ccccc2)nc1-c1ccc(Cl)c(Cl)c1)C(=O)O`, in [2], the EC50 is 369 nM.

In the case of `N#C/C(=C\c1c[nH]nc1-c1cccc(Br)c1)C(=O)O`, the EC50 in [2] came out at 444 nM. The t1/2 in [4] was above 2 h. Moreover, the Intrinsic clearance in [5] is 3 µL/min/mg. The Kinetic_solubility in data set [6] was 0.2 µM.

In the case of `COc1ccc(-c2n[nH]cc2/C=C(\C#N)C(=O)O)cc1F`, the EC50 in [2] came out at 568 nM.

With `N#C/C(=C\c1c[nH]nc1-c1ccc2c(c1)OCO2)C(=O)O`, in data set [2], the EC50 came out at 435 nM.

Regarding `CC(C)(C)OC(=O)/C(C#N)=C/c1c[nH]nc1-c1cccc(C(F)(F)F)c1`, the EC50 in [2] amounted to 12000 nM. Further, the t1/2 in data set [4] is above 2 h. Also, the Intrinsic clearance in data set [5] turned out to be 2 µL/min/mg. For the same compound, the Kinetic_solubility in data set [6] is 24.4 µM.

`N#C/C(=C\c1c[nH]nc1-c1ccc(F)c([N+](=O)[O-])c1)C(=O)O`: the EC50 in data set [2] amounted to 810 nM.

Take `N#C/C(=C\c1c[nH]nc1-c1ccccc1F)C(=O)O`: in [2], the EC50 stood at 791 nM.

In the case of `N#C/C(=C\c1cn(-c2ccccc2)nc1-c1ccc2ccccc2c1)C(=O)O`, the EC50 in [2] is 789 nM.

Consider `N#C/C(=C\c1cn(-c2ccccc2)c2ccccc12)C(=O)O`, for which the EC50 in data set [2] is 241 nM.

As to `Cc1ccccc1-c1n[nH]cc1/C=C(\C#N)C(=O)O`, in data set [2], the EC50 worked out at 659 nM.

For `N#C/C(=C\c1c[nH]nc1-c1ccc(Cl)c(Cl)c1)C(=O)O`, in [1], the Activity result is “Not_active”. Moreover, the inhibition result with LX-2 [7], in the data set with LX-2 [3] and with LX-2 [8] was “Active” in each case. Besides, in data set [2], the EC50 worked out at 107 nM. Also, the t1/2 in [4] is above 2 h. Further, in data set [5], the Intrinsic clearance was found to be 3 µL/min/mg. Also, the solubility kinetic at 24 h in [6] is at least 100 µM.

For the compound `N#C/C(=C\c1c[nH]nc1-c1cc(Cl)ccc1Cl)C(=O)O`, the 50% effective concentration (EC50) in data set [2] is 504 nM.

Take `N#C/C(=C\c1c[nH]nc1-c1ccc(Cl)cc1)C(=O)O`: the EC50 in data set [2] came out at 796 nM.

`N#C/C(=C\c1cn(Cc2ccccc2)nc1-c1ccc2ccccc2c1)C(=O)O`: in data set [2], the EC50 was 1290 nM.

For the compound `N#C/C(=C\c1c[nH]nc1-c1ccc2ccccc2c1)C(=O)O`, the Activity entry in data set [1] is reported as “Not_active”. Further, the inhibition result in the data set on LX-2 [7], in the data set with LX-2 [3] and in the data set on LX-2 [8] was “Active” in each case. For the same compound, in data set [2], the EC50 was determined as 212 nM. In addition, in [4], the t1/2 turned out to be 1.15 h. The Intrinsic clearance in [5] was determined as 10 µL/min/mg. Moreover, the solubility kinetic at 24 h in data set [6] is at least 100 µM.

As for `N#C/C(=C\c1c[nH]nc1-c1cccc2ccccc12)C(=O)O`, in data set [2], the EC50 is 273 nM.

Take `N#C/C(=C\c1c[nH]nc1-c1cccc(Cl)c1)C(=O)O`: the EC50 in data set [2] was 650 nM.

Turning to `COc1ccc(-c2n[nH]cc2/C=C(\C#N)C(=O)O)cc1`, in data set [2], the EC50 came out at 795 nM.

For the compound `N#C/C(=C\c1cn(Cc2ccccc2)nc1-c1ccc(Cl)c(Cl)c1)C(=O)O`, in data set [2], the EC50 is 722 nM.

Consider `CN(CCOc1ccc(CC2SC(=O)NC2=O)cc1)c1ccccn1` (stereo not given) [ROSIGLITAZONE], for which the outcome in data set [9] was Active.

Turning to `N#C/C(=C\c1c[nH]nc1-c1cc2ccccc2s1)C(=O)O`, the EC50 in data set [2] was 552 nM.

Regarding `N#C/C(=C\c1c[nH]nc1-c1ccccc1)C(=O)O`, the EC50 in data set [2] is 796 nM.

For `N#C/C(=C\c1c[nH]nc1-c1ccc(C(F)(F)F)cc1)C(=O)O`, the EC50 in data set [2] was determined as 543 nM.

In the case of `COc1ccc(-c2n[nH]cc2/C=C(\C#N)C(=O)O)c(F)c1`, the 50% effective concentration (EC50) in data set [2] came to 659 nM.

On to `N#C/C(=C\c1c[nH]nc1-c1ccccc1C(F)(F)F)C(=O)O`, for which, in [2], the EC50 was 258 nM.

On to `CC(C)(C)OC(=O)/C(C#N)=C/c1c[nH]nc1-c1ccc(Cl)c(Cl)c1`, for which, in data set [2], the EC50 is 8710 nM.

On to `N#C/C(=C\c1c[nH]nc1-c1ccccc1Cl)C(=O)O`, for which, in [2], the EC50 turned out to be 516 nM.

In the case of `N#C/C(=C\c1c[nH]nc1-c1cccc(C(F)(F)F)c1)C(=O)O`, the Activity result in data set [1] is “Not_active”. Moreover, in [2], the EC50 was 108 nM. The t1/2 in data set [4] is above 2 h. Also, the Intrinsic clearance in data set [5] was 3 µL/min/mg. Besides, the solubility kinetic at 24 h in data set [6] is at least 100 µM.

As for `N#C/C(=C\c1c[nH]nc1-c1ccc(-c2ccccc2)cc1)C(=O)O`, in data set [2], the EC50 came out at 919 nM.

`COc1ccccc1-c1n[nH]cc1/C=C(\C#N)C(=O)O`: the EC50 in [2] was 568 nM.

Regarding `N#C/C(=C\c1c[nH]nc1-c1cc(C(F)(F)F)cc(C(F)(F)F)c1)C(=O)O`, the EC50 in [2] worked out at 165 nM.

As for `COc1ccc(-c2n[nH]cc2/C=C(\C#N)C(=O)O)cc1OC`, the EC50 in data set [2] is 808 nM.

Source of the values: ChEMBL document CHEMBL6074717, “Advancing mitochondrial therapeutics: Synthesis and pharmacological evaluation of pyrazole-based inhibitors targeting the mitochondrial pyruvate carrier” (Eur J Med Chem, 2025).
